In patent US12600717B2, “Tricyclic compounds as inhibitors of KRAS” (Incyte Corporation, priority 2021, dated 2026):

Assays:
KRAS G12D = KRAS G12D (Homo sapiens, UniProt P01116, G12D); assay: GDP-GTP exchange assay (bodipy-GDP/GppNHp, SOS1), KRAS G12D; assay type: biochemical; settings: bodipy-loaded KRAS G12D 2.5 nM, 4 hours pre-incubation with inhibitor, 2 hours after GppNHp/SOS1; read-out: G12D_exchange IC50
Method: (§1) The inhibitor potency of the exemplified compounds was determined in a fluorescence based guanine nucleotide exchange assay, which measures the exchange of bodipy-GDP (fluorescently labeled GDP) for GppNHp (Non-hydrolyzable GTP analog) to generate the active state of KRAS in the presence of SOS1 (guanine nucleotide exchange factor). Inhibitors were serially diluted in DMSO and a volume of 0.1 μL was transferred to the wells of a black low volume 384-well plate. 5 μL/well volume of bodipy-loaded KRAS G12D diluted to 2.5 nM in assay buffer (25 mM Hepes pH 7.5, 50 mM NaCl, 10 mM MgCl2 and 0.01% Brij-35) was added to the plate and pre-incubated with inhibitor for 4 hours at ambient temperature. Appropriate controls (enzyme with no inhibitor or with a G12D inhibitor) were included on the plate. The exchange was initiated by the addition of a 5 μL/well volume containing 1 mM GppNHp and 300 nM SOS1 in assay buffer. The 10 μL/well reaction concentration of the bodipy-loaded KRAS G12D, GppNHp, and SOS1 were 2.5 nM, 500 uM, and 150 nM, respectively. The reaction plates were incubated at ambient temperature for 2 hours, a time estimated for complete GDP-GTP exchange in the absence of inhibitor. For the KRAS G12V mutant, similar guanine nucleotide exchange assays were used with 2.5 nM as final concentration for the bodipy loaded KRAS proteins and 3 hours incubation after adding GppNHp-SOS1 mixture. A cyclic peptide described to selectively bind G12D mutant (Sakamoto et al., BBRC 484.3 (2017), 605-611) or internal compounds with confirmed binding were used as positive controls in the assay plates. Fluorescence intensities were measured on a PheraStar plate reader instrument (BMG Labtech) with excitation at 485 nm and emission at 520 nm.
(§2) Either GraphPad prism or Genedata Screener SmartFit was used to analyze the data. The IC50 values were derived by fitting the data to a four parameter logistic equation producing a sigmoidal dose-response curve with a variable Hill coefficient.
(§3) The symbol “†” indicates IC50≤100 nM, “††” indicates IC50>100 nM but ≤1 μM; and “†††” indicates IC50 is >1 μM but ≤5 μM, “††††” indicates IC50 is >5 μM but ≤10 μM. “NA” indicates IC50 not available.

KRAS G12V = KRAS G12V (Homo sapiens, UniProt P01116, G12V); assay: GDP-GTP exchange assay (bodipy-GDP/GppNHp, SOS1), KRAS G12V; assay type: biochemical; settings: bodipy-loaded KRAS G12V 2.5 nM, 3 hours incubation after adding GppNHp-SOS1; read-out: G12V_exchange IC50
Method: as §1, §2, §3

Chain of KRAS G12D (P01116 1-188 isoform P01116-2 G12D): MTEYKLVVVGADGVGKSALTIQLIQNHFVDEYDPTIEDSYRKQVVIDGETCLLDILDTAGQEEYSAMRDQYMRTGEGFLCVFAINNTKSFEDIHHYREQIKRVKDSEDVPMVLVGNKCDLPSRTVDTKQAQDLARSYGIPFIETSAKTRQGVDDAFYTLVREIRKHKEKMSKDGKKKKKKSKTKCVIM
Chain of KRAS G12V (P01116 1-188 isoform P01116-2 G12V): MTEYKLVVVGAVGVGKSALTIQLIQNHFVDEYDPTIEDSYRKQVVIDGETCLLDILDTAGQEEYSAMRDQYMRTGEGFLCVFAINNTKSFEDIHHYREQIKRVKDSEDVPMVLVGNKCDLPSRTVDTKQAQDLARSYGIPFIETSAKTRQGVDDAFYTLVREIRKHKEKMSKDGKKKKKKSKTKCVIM

| SMILES | IC50 (KRAS G12D) | IC50 (KRAS G12V) |
| --- | --- | --- |
| CN(C)C(=O)CCc1nc2c(N3CC(N(C)C)C3)nc3c(-c4cnn(-c5ccccn5)c4)c(-c4cc(O)cc5ccccc45)c(CCC#N)cc3c2n1C1C2CNC1C2 (stereo not drawn) [Example 13, 3-(1-((endo)-2-azabicyclo[2.1.1]hexan-5-yl)-8-(2-cyanoethyl)-4-(3-(dimethylamino)azetidin-1-yl)-7-(3-hydroxynaphthalen-1-yl)-6-(1-(pyridin-2-yl)-1H-pyrazol-4-yl)-1H-imidazo[4,5-c]quinolin-2-yl)-N,N-dimethylpropanamide] | 100 to 1000 nM | 5000 to 10000 nM |
| CCc1nc2c(-c3ccn4ncnc4c3)nc3c(F)c(-c4cc(O)cc5ccccc45)c(CCC#N)cc3c2n1C1C2CNC1C2 (single isomer, unassigned) [Example 21a, 3-(4-([1,2,4]Triazolo[1,5-a]pyridin-7-yl)-1-((endo)-2-azabicyclo[2.1.1]hexan-5-yl)-2-ethyl-6-fluoro-7-(3-hydroxynaphthalen-1-yl)-1H-imidazo[4,5-c]quinolin-8-yl)propanenitrile] | ≤ 100 nM | ≤ 100 nM |
| CN(C)C(=O)CCc1nc2c(N3CC(N(C)C)C3)nc3c(OCc4ccccc4)c(-c4cccc5ccc(F)cc45)c(CCC#N)cc3c2n1[C@@H]1[C@@H]2CN[C@H]1C2 (relative stereo) [Example 14, 3-(6-(benzyloxy)-1-((endo)-2-azabicyclo[2.1.1]hexan-5-yl)-8-(2-cyanoethyl)-4-(3-(dimethylamino)azetidin-1-yl)-7-(7-fluoronaphthalen-1-yl)-1H-imidazo[4,5-c]quinolin-2-yl)-N,N-dimethylpropanamide] | 100 to 1000 nM | 5000 to 10000 nM |
| CN(C)C1CN(c2nc3c(F)c(-c4cc(O)cc5ccccc45)c(CCC#N)cc3c3c2nc(-c2ccn(-c4ccccc4)n2)n3C2C3CNC2C3)C1 (single isomer, unassigned) [Example 34a, 3-(1-((endo)-2-azabicyclo[2.1.1]hexan-5-yl)-4-(3-(dimethylamino)azetidin-1-yl)-6-fluoro-7-(3-hydroxynaphthalen-1-yl)-2-(1-phenyl-1H-pyrazol-3-yl)-1H-imidazo[4,5-c]quinolin-8-yl)propanenitrile] | ≤ 100 nM | ≤ 100 nM |
| C[C@H](Oc1nc2c(F)c(-c3cccc4cccc(C#N)c34)c(Cl)cc2c2c1ncn2[C@H]1CCN(C(=O)CC#N)[C@H](CC#N)C1)[C@@H]1CCCN1C [Example 40, 8-(8-chloro-1-((2S,4S)-1-(2-cyanoacetyl)-2-(cyanomethyl)piperidin-4-yl)-6-fluoro-4-((S)-1-((S)-1-methylpyrrolidin-2-yl)ethoxy)-1H-imidazo[4,5-c]quinolin-7-yl)-1-naphthonitrile] | ≤ 100 nM | ≤ 100 nM |
| CCc1nc2c(N3CC(N(C)C)C3)nc3c(F)c(-c4cc(O)cc5ccccc45)c(-c4cnco4)cc3c2n1C1C2CNC1C2 (single isomer, unassigned) [Example 6a, 4-(1-((endo)-2-azabicyclo[2.1.1]hexan-5-yl)-4-(3-(dimethylamino)azetidin-1-yl)-2-ethyl-6-fluoro-8-(oxazol-5-yl)-1H-imidazo[4,5-c]quinolin-7-yl)naphthalen-2-ol] | 100 to 1000 nM | 5000 to 10000 nM |
| CN(C)C1CN(c2nc3c(F)c(-c4cc(O)cc5ccccc45)c(CCC#N)cc3c3c2nc(CCC(=O)N2CC4(CCOCC4)C2)n3C2C3CNC2C3)C1 (single isomer, unassigned) [Example 3a, 3-(1-((endo)-2-azabicyclo[2.1.1]hexan-5-yl)-4-(3-(dimethylamino)azetidin-1-yl)-6-fluoro-7-(3-hydroxynaphthalen-1-yl)-2-(3-oxo-3-(7-oxa-2-azaspiro[3.5]nonan-2-yl)propyl)-1H-imidazo[4,5-c]quinolin-8-yl)propanenitrile] | ≤ 100 nM | ≤ 100 nM |
| CCc1nc2c(-c3ncco3)nc3c(F)c(-c4cc(O)cc5ccccc45)c(CCC#N)cc3c2n1C1C2CNC1C2 (single isomer, unassigned) [Example 20a, 3-(1-((endo)-2-Azabicyclo[2.1.1]hexan-5-yl)-2-ethyl-6-fluoro-7-(3-hydroxynaphthalen-1-yl)-4-(oxazol-2-yl)-1H-imidazo[4,5-c]quinolin-8-yl)propanenitrile] | ≤ 100 nM | 100 to 1000 nM |
| CCc1nc2c(C)nc3c(F)c(-c4cc(O)cc5ccccc45)c(CCC#N)cc3c2n1C1C2CNC1C2 (single isomer, unassigned) [Example 23a, 3-(1-((endo)-2-Azabicyclo[2.1.1]hexan-5-yl)-2-ethyl-6-fluoro-7-(3-hydroxynaphthalen-1-yl)-4-methyl-1H-imidazo[4,5-c]quinolin-8-yl)propanenitrile] | ≤ 100 nM | ≤ 100 nM |
| CN(C)C(=O)CCc1nc2c(N3CC(N(C)C)C3)nc3c(F)c(-c4cccc5c4CC(F)(F)CC5)c(CCC#N)cc3c2n1[C@@H]1[C@@H]2CN[C@H]1C2 (relative stereo) [Example 33, 3-(1-endo-(2-azabicyclo[2.1.1]hexan-5-yl)-8-(2-cyanoethyl)-7-(7,7-difluoro-5,6,7,8-tetrahydronaphthalen-1-yl)-4-(3-(dimethylamino)azetidin-1-yl)-6-fluoro-1H-imidazo[4,5-c]quinolin-2-yl)-N,N-dimethylpropanamide] | ≤ 100 nM | 1000 to 5000 nM |
| CCc1nc2c(N3CC(N(C)C)C3)nc3c(F)c(-c4cc(O)cc5ccccc45)c(C(CC#N)n4cccn4)cc3c2n1C1C2CNC1C2 (single isomer, unassigned) [Example 7a, 3-(1-((endo)-2-azabicyclo[2.1.1]hexan-5-yl)-4-(3-(dimethylamino)azetidin-1-yl)-2-ethyl-6-fluoro-7-(3-hydroxynaphthalen-1-yl)-1H-imidazo[4,5-c]quinolin-8-yl)-3-(1H-pyrazol-1-yl)propanenitrile] | ≤ 100 nM | 100 to 1000 nM |
| C[C@H](Oc1nc2c(F)c(-c3cccc4cccc(C#N)c34)c(Cl)cc2c2c1ncn2[C@H]1CCN(C(=O)c2nc[nH]n2)[C@H](CC#N)C1)[C@@H]1CCCN1C [Example 41, 8-(8-chloro-1-((2S,4S)-2-(cyanomethyl)-1-(1H-1,2,4-triazole-3-carbonyl)piperidin-4-yl)-6-fluoro-4-((S)-1-((S)-1-methylpyrrolidin-2-yl)ethoxy)-1H-imidazo[4,5-c]quinolin-7-yl)-1-naphthonitrile] | 100 to 1000 nM | ≤ 100 nM |
| CC(=O)N1CCN(C(=O)CCc2nc3c(N4CC(N(C)C)C4)nc4c(F)c(-c5cc(O)cc6ccccc56)c(CCC#N)cc4c3n2C2C3CNC2C3)CC1 (single isomer, unassigned) [Example 4a, 3-(2-(3-(4-acetylpiperazin-1-yl)-3-oxopropyl)-1-((endo)-2-azabicyclo[2.1.1]hexan-5-yl)-4-(3-(dimethylamino)azetidin-1-yl)-6-fluoro-7-(3-hydroxynaphthalen-1-yl)-1H-imidazo[4,5-c]quinolin-8-yl)propanenitrile] | ≤ 100 nM | ≤ 100 nM |
| CN(C)C1CN(c2nc3c(F)c(-c4cc(O)cc5ccccc45)c(CCC#N)cc3c3c2nc(-c2cn(C4CCNCC4)nn2)n3C2C3CNC2C3)C1 (single isomer, unassigned) [Example 26a, 3-(1-((endo)-2-Azabicyclo[2.1.1]hexan-5-yl)-4-(3-(dimethylamino)azetidin-1-yl)-6-fluoro-7-(3-hydroxynaphthalen-1-yl)-2-(1-(piperidin-4-yl)-1H-1,2,3-triazol-4-yl)-1H-imidazo[4,5-c]quinolin-8-yl)propanenitrile] | ≤ 100 nM | ≤ 100 nM |
| C[C@H](Oc1nc2c(F)c(-c3cccc4cccc(C#N)c34)c(Cl)cc2c2c1ncn2[C@H]1CCN(C(N)=O)[C@H](CC#N)C1)[C@@H]1CCCN1C [Example 42, (2S,4S)-4-(8-chloro-7-(8-cyanonaphthalen-1-yl)-6-fluoro-4-((S)-1-((S)-1-methylpyrrolidin-2-yl)ethoxy)-1H-imidazo[4,5-c]quinolin-1-yl)-2-(cyanomethyl)piperidine-1-carboxamide] | ≤ 100 nM | ≤ 100 nM |
| CC(=O)N1CCCC(c2nc3c(N4CC(N(C)C)C4)nc4c(F)c(-c5cc(O)cc6ccccc56)c(C)cc4c3n2C2C3CNC2C3)C1 (single isomer, unassigned) [Example 1a, 1-(3-(1-((endo)-2-azabicyclo[2.1.1]hexan-5-yl)-4-(3-(dimethylamino)azetidin-1-yl)-6-fluoro-7-(3-hydroxynaphthalen-1-yl)-8-methyl-1H-imidazo[4,5-c]quinolin-2-yl)piperidin-1-yl)ethan-1-one] | 100 to 1000 nM | – |
